Laboratory results reported in PMC5354587, “Ergosterone-coupled Triazol molecules trigger mitochondrial dysfunction, oxidative stress, and acidocalcisomal Ca^2+ release in Leishmania mexicana promastigotes” (Microbial Cell, 2015).
Read-outs that look alike come from different tables or passages of the source.

Legend:
Type in all cases: cell-based
[1] = tested on: Leishmania mexicana promastigotes; test: Half-inhibitory concentration on parasites, modified MTT method; conditions: for IC50: read-out: IC50 on L. mexicana promastigotes; for Selectivity index: promastigotes compared to human dermic fibroblasts; for growth inhibition on promastigotes: concentrations even higher than 100 μM
Method: Parasites were treated with different concentrations of the synthesized compounds for 48 hours to determine their cytotoxic effect. A dose dependent growth inhibition was observed after this time.
(§1) Promastigotes of Leishmania mexicana Bel 21 strain were cultured at 26°C in Liver Infusion Tryptone (LIT) medium supplemented with 10% fetal bovine serum (Internegocios). Primary cultures of human dermic fibroblasts were performed at 37°C in DMEN medium (Sigma) supplemented with 10% fetal bovine serum in a CO2 incubator at 5% CO2.
(§2) To determine the IC50 in parasites and human fibroblasts the protocol described by was followed. Briefly, a suspension of 2 x 10^6 parasites per mL^-1 or 5 x 10^3 fibroblasts per well were transferred into 96 well plates and different concentrations of the compounds were added. Plates were incubated under the corresponding culture conditions for 48 or 72 hours for L. mexicana or human fibroblasts, respectively. Thereafter, parasites plates were centrifuged prior to the elimination of the supernatant. Cell viability was measured by the modified MTT method, where cells were incubated with the MTT substrate at 0.2 mg x mL^-1 for 4 hours. Colored crystals formed were solubilized in DMSO and absorbance was measured at 570 nm. IC50 was obtained from a dose response curve using the software OriginLab Pro 6.0^©.

human dermic fibroblasts = test: Half-inhibitory concentration on human fibroblasts, modified MTT method; conditions: 72 hours
Method: as §1, §2

[2] = tested on: Leishmania mexicana promastigotes; test: Mitochondrial membrane potential, Mitotracker Red CMXROS, flow cytometry
Method: In order to determine the energetic state of the mitochondrion after parasites treatment, the compound Mitotraker Red CMXROS was used. As described in the Materials and Methods section, parasites were treated for 6, 16, 24, and 48 hours with each molecule at its IC50, then incubated with Mitotraker Red CMXROS (50 nM) for 30 minutes under culture conditions, and finally analyzed by flow cytometry. […] Additionally, to rule out if Erg itself (the non-azole fraction of the conjugates) could be responsible for this hyperpolarization, parasites were treated with this compound and ΔΨmit was monitored for up to 48 hours by flow cytometry.
Mitotracker CMX Red(Invitrogen) was used to determine the mitochondrial membrane potential (Ψmit) of treated parasites. After 6, 16, 24, and 48 hours treatment, cells were incubated in culture medium with 50 nM Mitotracker CMX Red for 30 minutes at 26°C in the dark. Thereafter, parasites were washed twice with PBS, resuspended in 1 mL buffer, and analyzed using a cytometer (Beckman Coulter). Parasites incubated with valinomycin (500 nM for 30 minutes) were used as positive control. To evaluate the effect of ergosterone coupled molecules on the mitochondrial membrane potential immediately after molecule addition we used the fluorophore rhodamine-123, a mitochondrion-specific cationic dye, which distributes across the inner mitochondrial membranes strictly according to their membrane potential, as described before. Briefly, 1 x 10^7 parasites were washed twice with rhodamine 123 loading buffer (20 mM Tris-HCl, 130 mM KCl, 1 mM MgCl2, and 2 mM KH2PO4) and incubated with 20 μM rhodamine 123 for 45 minutes at 29°C under agitation. Samples were washed twice, resuspended in 500 μL of the same buffer, and transferred to a quartz cuvette. Fluorescence (ex 488 nm and em 530 nm) was registered in a Hitachi F-7000 Spectrofluorimeter. FCCP was used as control for mitochondrial membrane depolarization.

[3] = tested on: Leishmania mexicana promastigotes; test: Reactive oxygen species (superoxide) determination with dihydroethidium; conditions: Erg-GTr/Erg-GTr2 treated cells; data not shown
Method: To evaluate the intracellular level of reactive oxygen species (ROS) after Erg-GTr or Erg-GTr2 treatment, parasites were incubated with dihydroethidium, which become oxidized in the presence of the superoxide anion to form the fluorescent DNA-intercalating agent ethidium, i.e. the emitted fluorescence is proportional to the amount of ROS present. Figure 6A represents a ROS production kinetics analysis performed between 6 and 48 hours post-treatment with both molecules. […] In fact, ROS levels increased already during the first 6 hours of treatment when compared with control cells, which maintained a ROS level lower than 2% throughout the whole kinetic study.
Figure 6 FIGURE 6: Superoxide production after Erg-GTr or Erg-GTr2 treatment. Parasites were treated with 1.4 μM Erg-GTr or 2.3 μM Erg-GTr2 or DMSO (control cells), harvested after different time points and then prepared to measure intracellular superoxide using dyhidroethidium. (A) Superoxide production kinetics in control and treated parasites. […] (B) Representative FACS histograms showing the superoxide-sensitive fluorescence of control and treated promastigotes after 24 hours incubation. The percentages were determined using the WinMDI software. […]
Dihydroethidium (Invitrogen) was used to detect the intracellular level of superoxide anion. […] Thereafter, samples were washed with PBS and immediately analyzed in a Beckman Coulter Cytometer.

[4] = tested on: Leishmania mexicana promastigotes; test: Alkalinization of acidocalcisomes, acridine orange; conditions: Erg-GTr 1.4 μM or Erg-GTr2 2.4 μM; nigericin 2 μM as control
Text: Leishmania can store Ca^2+ in different compartments like the endoplasmic reticulum, the mitochondrion, and the acidocalcisomes. The major Ca^2+ reservoir is represented by this last organelle. In order to analyze if the [Ca^2+]cyt increase is due to its release from acidocalcisomes, parasites were charged with acridine orange and assayed fluorimetrically. Since acridine orange accumulates in acidic compartments, it allows detection of alkalinization.
To evaluate the effect of ergosterone coupled molecules on the Ca^2+ reservoir organelle acidocalcisome, parasites were stained with acridine orange as described previously. Briefly, 1 x 10^7 parasites were washed twice with loading buffer (20 mM Tris-HCl, 130 mM KCl, 1 mM MgCl2, and 2 mM KH2PO4) and incubated for 5 minutes with acridine orange (5 μM). Samples were washed twice, resuspended in 500 μL of the same buffer, and transferred to a stirred quartz cuvette at 29°C. Fluorescence (ex 488 nm and em 530 nm) was registered in a Hitachi F-7000 Spectrofluorimeter. Nigericin was used as control for acidocalcisome alkalinization.

Compound | Selectivity index [1] | IC50 ([1]; Leishmania mexicana, 48 h) | growth inhibition on promastigotes ([1]; 48 hours) | also measured
1-[5-hydroxy-10-methyl-3-oxo-17-(1,4,5-trimethyl-hex-2-enyl)-1,2,3,4,5,9,10,11,12,13,14,15,16,17-tetradecahydro-cyclopenta[a]phenanthren-6-ylidene-hydrazinocarbonyl]-pyridinium chloride [Erg-GP] | 1.0 |  |  | IC50 ([1]; 48 hours, MTT): 42.4 ± 2.8 µM; IC50 (human dermic fibroblasts): 44.5 µM
CC(C)C(C)C=CC(C)C1CCC2C3=CC=C4CC(O)CCC4(C)C3CCC21C (stereo not shown) [Ergosterol, 10,13-dimethyl-17-(1,4,5-trimethyl-hex-2-enyl)-2,3,4,9,10,11,12,13,14,15,16,17-dodecahydro-1H-cyclopenta[a]phenanthren-3-ol, reference compound] | 0.8 | 33.8 ± 4.7 µM |  | IC50 (human dermic fibroblasts; Fibroblast): 27 ± 3.5 µM
CC(C)C(C)C=CC(C)C1CCC2C3=CC(=O)C4(O)CC(=O)CCC4(C)C3CCC21C (stereo not shown) [Ergosterone, 5-hydroxy-10,13-dimethyl-17-(1,4,5-trimethyl-hex-2-enyl)-1,4,5,9,10,11,12,13,14,15,16,17-dodecahydro-2H-cyclopenta[a]phenanthrene-3,6-dione] | 3.1 | 9 ± 0.7 µM |  | IC50 (human dermic fibroblasts; Fibroblast): 28.3 ± 8.5 µM; effect on inner mitochondrial membrane potential (ΔΨmit) ([2]; treatment up to 48 hours, flow cytometry): No differences
NNC(=O)[n+]1ccccc1.[Cl-] [GP, 1-hydrazinocarbonyl-pyridinium chloride, reference compound] |  | > 200 µM | did not show inhibition | 
C[N+](C)(C)CC(=O)NN [GT, hydrazinocarbonylmethyl-trimethyl-ammonium chloride, reference compound] |  | > 200 µM | did not show inhibition | 
NNC(=O)n1cnnc1 [GTr, [1,2,4]triazole-4-carboxylic acid hydrazide] |  | 158 µM | did not show inhibition | 
CC(=O)N[C@@H](CS)C(=O)O [N-acetyl-cysteine, reference compound] |  |  |  | effect of ROS scavenger on mitochondrion hyperpolarization ([2]; Erg-GTr/Erg-GTr2 treated cells, data not shown): did not prevent; effect of ROS scavenger on ROS formation [3]: revert partially
CO[C@@H]1C[C@@H](C[C@H]2CC[C@H](C)[C@H]([C@@H](C)C(=O)O)O2)O[C@]2(O[C@](C)([C@H]3CC[C@@](C)([C@@H]4O[C@@H]([C@H]5O[C@@](O)(CO)[C@H](C)C[C@@H]5C)C[C@@H]4C)O3)C[C@H]2C)[C@@H]1C [nigericin, reference compound] |  |  |  | acridine orange fluorescence (acidocalcisome alkalinization) [4]: further reduction of the acidity
[5-hydroxy-10-methyl-3-oxo-17-(1,4,5-trimethyl-hex-2-enyl)-1,2,3,4,5,9,10,11,12,13,14,15,16,17-tetradecahydro-cyclopenta[a]phenanthren-6-ylidene-hydrazinocarbonylmethyl]-trimethyl-ammonium chloride [Erg-GT] | 3.5 |  |  | IC50 ([1]; 48 hours, MTT): 10.4 ± 0.2 µM; IC50 (human dermic fibroblasts): 36.4 µM
